Entries after “also recorded” stand apart in the source; their conditions may differ.
Test system: Epi/Par fat pads (white adipose tissue)
Assay: Adipose tissue apoptosis assay, % DNA fragmentation (Example 1)
Assay type: in vivo, mice
Details: 21 days
Protocol: Animals: Five week old male (n=20) and female (n=20) ICR mice (Harlan Research Laboratories, Indianapolis, Ind.) were allowed to acclimate for one week prior to the experiment start date. Animals were housed singly in suspended wire cages and were provided ground rodent chow (ProLab® RMH 2500; Purina Mills, St. Louis, Mo.) and water ad libitum. Ambient room temperature was maintained and the light/dark cycle was 0600/1800 hours, respectively. Animals were cared for in accordance with the Guide for the Care and Use of Laboratory Animals (Institute of Laboratory Animal Resources Commission on Life Sciences National Research Council. Guide for the Care and Use of Laboratory Animals. National Academy of Sciences, 1996). Prior to the start of the study, animals were briefly anesthetized with isofluorane and an IPPT-200 transponder (programmable ID and temperature, BMDS, Seaford, Del.) was implanted subcutaneously between the scapulae.
Materials: Test articles included clenbuterol (Sigma Chemical Company, St. Louis, Mo., item # C5423) and ractopamine hydrochloride—Paylean® 9 (Elanco Animal Health, Indianapolis, Ind.). Clenbuterol is available as a pure product, and ractopamine is readily available as a type A medicated article. Paylean® 9 contains about 20 g ractopamine hydrochloride per kilogram in a ground corncob base. In order to achieve doses of 200 and 800 ppm it was necessary to add about […] of product per kilogram of diet. Control and clenbuterol diets were prepared with about 80 g of alphacel, which is a diluent used to mimic the effect of the corncob in the ractopamine product. The dose of clenbuterol used in this experiment was similar to those used in previous experiments with mice (Agbenyega E T, and Wareham A C. Effect of clenbuterol on skeletal muscle atrophy in mice induced by the glucocorticoid dexamethasone. Comp Biochem Physiol Comp Physiol 1992;102:141-145, Rothwell N. J., and Stock M J. Modification of body composition by clenbuterol in normal and dystrophic (mdx) mice. Biosci Rep 1985;5:755-760, Hyltander A, Svaninger G, and Lundholm K. The effect of clenbuterol on body composition in spontaneously eating tumour-bearing mice. Biosci Rep 1993;13:325-331, Hayes A, and Williams DA. Long-term clenbuterol administration alters the isometric contractile properties of skeletal muscle from normal and dystrophin-deficient mdx mice. Clin Exp Pharmacol Physiol 1994;21:757-765, Dupont-Versteegden EE. Exercise and clenbuterol as strategies to decrease the progression of muscular dystrophy in mdx mice. J Appl Physiol 1996;80:734-741).
DNA Isolation and Apoptosis Assay: Only the Epi and Par fat pads had sufficient tissue for the apoptosis assay. Apoptosis was assayed in two ways: DNA isolated from fat tissue was separated into two fractions: fragmented and genomic DNA. First, the fragmented DNA was run on an agarose gel in order to identify a ladder pattern of internucleosomal DNA degradation that is characteristic of apoptosis. Second, apoptosis was quantified as the ratio of fragmented- to total-DNA, multiplied by 100. Briefly, approximately 50 mg of the Epi or Par white adipose tissue was homogenized in lysis buffer (10 mM Tris-HCL, pH 8.0, 10 mM EDTA, pH 8.0; 0.5% Triton X-100) and centrifuged at 14,000× g for 15 min to separate fragmented DNA from genomic DNA. The supernatant, containing fragmented DNA, was extracted with phenol-chloroform-isoamyl alcohol (25:24:1), and the DNA was precipitated by adding polyacryl carrier (Molecular Research Center, Inc., Cincinnati, Ohio) and ethanol. Genomic (non-fragmented) DNA was extracted from the pellet with DNAzol and the polyacryl carrier. DNA in each fraction was quantified by the PicoGreen method (Molecular Probes, Inc., Eugene, Oreg.) and fluorescence was measured using a SpectroMax Gemini (Molecular Devices).
Statistical Analysis: Analysis of variance (SAS) was used to determine significance of treatment and gender effects. […]

SMILES: CC(C)(C)NCC(O)c1cc(Cl)c(N)c(Cl)c1 (stereo not drawn) [Clenbuterol, clenbuterol]
- Percent DNA fragmentation (apoptosis) in the Epi/Par fat pad compared to control (200 ppm clenbuterol, 800 ppm ractopamine in diet, p<0.05, listed as clenbuterol): increased; also recorded: significant increase in apoptosis
- Adipose tissue apoptosis (% DNA fragmentation) in Epi/Par fat pads (200 ppm in diet, mice, control 1.7±0.4%): 5.2 ± 1.1%
- DNA fragmentation in retroperitoneal or inguinal fat pads (diet, mice): Neither clenbuterol nor ractopamine treatments increased
